Each structure is given as a SMILES string. Active and inactive are the calls of the source. Rule as the data show it, for most assays here: actives have a measured AC50 and inactives only a lower limit. A value given as a limit tells only on which side of the number the result lay.

The nature of test [1]: Shn3 3'UTR reporter inhibitors, dose response, cell-based, Clone20 osteoblasts, firefly luciferase, cherry-picked (AID 624132).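 Also: firefly luciferase luminescence from reporter carrying the Shn3 3'UTR in osteoblasts.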 In kind it is functional.
Another test addresses T1, Protein RecA (Mycobacterium tuberculosis, UniProt P9WHJ3).
T1 sequence (P9WHJ3 whole entry): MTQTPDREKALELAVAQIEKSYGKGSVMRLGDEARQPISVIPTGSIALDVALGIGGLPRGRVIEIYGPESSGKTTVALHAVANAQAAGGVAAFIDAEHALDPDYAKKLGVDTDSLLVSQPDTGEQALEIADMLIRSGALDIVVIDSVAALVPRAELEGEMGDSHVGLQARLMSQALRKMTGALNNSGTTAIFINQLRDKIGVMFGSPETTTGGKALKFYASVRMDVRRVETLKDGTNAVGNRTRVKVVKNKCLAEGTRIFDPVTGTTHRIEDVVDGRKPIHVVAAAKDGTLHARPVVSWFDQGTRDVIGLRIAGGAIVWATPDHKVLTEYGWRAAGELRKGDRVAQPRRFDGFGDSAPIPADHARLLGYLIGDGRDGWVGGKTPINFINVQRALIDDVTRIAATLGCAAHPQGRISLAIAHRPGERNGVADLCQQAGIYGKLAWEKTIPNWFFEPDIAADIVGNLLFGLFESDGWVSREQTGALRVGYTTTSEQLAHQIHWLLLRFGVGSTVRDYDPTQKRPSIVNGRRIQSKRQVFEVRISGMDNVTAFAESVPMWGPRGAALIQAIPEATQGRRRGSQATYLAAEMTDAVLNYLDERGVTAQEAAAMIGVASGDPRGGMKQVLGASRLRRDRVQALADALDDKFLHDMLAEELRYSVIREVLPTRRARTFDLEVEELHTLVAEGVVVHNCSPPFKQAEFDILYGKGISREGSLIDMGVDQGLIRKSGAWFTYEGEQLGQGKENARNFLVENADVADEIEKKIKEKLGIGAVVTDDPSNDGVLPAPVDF
Nature of the test: Fluorescence Cell-Free Homogeneous Dose Retest to Identify Inhibitors of RecA-Intein Splicing Activity. [Related pubchem assays (depositor defined):AID2097, AID2223, AID489010, AID492950]. In kind it is functional.

Test [2] concerns the target T2, Replicative DNA helicase DnaB (Mycobacterium tuberculosis, UniProt P9WMR3).
T2 sequence (P9WMR3 whole entry): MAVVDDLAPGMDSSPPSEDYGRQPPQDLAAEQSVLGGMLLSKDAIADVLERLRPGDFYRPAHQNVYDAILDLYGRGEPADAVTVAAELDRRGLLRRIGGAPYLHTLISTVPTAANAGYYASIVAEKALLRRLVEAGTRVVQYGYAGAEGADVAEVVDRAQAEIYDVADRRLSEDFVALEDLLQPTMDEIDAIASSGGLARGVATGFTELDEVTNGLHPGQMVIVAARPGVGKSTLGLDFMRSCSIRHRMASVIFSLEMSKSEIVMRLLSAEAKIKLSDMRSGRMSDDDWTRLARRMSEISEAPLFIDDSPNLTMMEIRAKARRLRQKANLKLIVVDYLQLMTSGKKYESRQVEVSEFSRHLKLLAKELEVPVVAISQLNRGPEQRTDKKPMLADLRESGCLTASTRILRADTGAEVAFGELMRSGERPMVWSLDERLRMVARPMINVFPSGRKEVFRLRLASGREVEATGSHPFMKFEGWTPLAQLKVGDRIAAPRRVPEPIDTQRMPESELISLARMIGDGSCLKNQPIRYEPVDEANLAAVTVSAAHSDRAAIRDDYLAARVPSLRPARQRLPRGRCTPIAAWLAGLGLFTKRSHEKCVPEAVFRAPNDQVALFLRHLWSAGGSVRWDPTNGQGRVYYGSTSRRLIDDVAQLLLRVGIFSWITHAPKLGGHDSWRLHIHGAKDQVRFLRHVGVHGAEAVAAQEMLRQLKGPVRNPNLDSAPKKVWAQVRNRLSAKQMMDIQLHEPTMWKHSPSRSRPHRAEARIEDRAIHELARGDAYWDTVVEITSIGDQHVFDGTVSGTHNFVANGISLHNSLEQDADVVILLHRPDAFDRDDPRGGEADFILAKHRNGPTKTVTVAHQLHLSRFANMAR
Nature of the test: DnaB intein splicing inhibitors, dose response, biochemical, cell-free fluorescence (AID 449749). In kind it is functional.

Test [3] is described as follows: HepG2 cell cytotoxicity, dose response, cytotoxicity control for Shn3 inhibitor project, CellTiter-Glo, cherry-picked (AID 624134). The class given is functional, cell-based. On the technique in general: Cellular ATP, detected with luciferase, serves as a proxy for viable cell number.
Test [4] can be described thus: control 3'UTR Renilla luciferase suppression, dose response, counter-screen for Shn3 inhibitor project, cell-based, Clone20-Shn3RL, cherry-picked (AID 624133). In kind it is functional. A general note: The purpose of a counterscreen is to sort out artefacts and off-target activity.
Test [5] concerns the target T3, Apoptotic protease-activating factor 1 (Homo sapiens, UniProt O14727).
T3 sequence (O14727 whole entry): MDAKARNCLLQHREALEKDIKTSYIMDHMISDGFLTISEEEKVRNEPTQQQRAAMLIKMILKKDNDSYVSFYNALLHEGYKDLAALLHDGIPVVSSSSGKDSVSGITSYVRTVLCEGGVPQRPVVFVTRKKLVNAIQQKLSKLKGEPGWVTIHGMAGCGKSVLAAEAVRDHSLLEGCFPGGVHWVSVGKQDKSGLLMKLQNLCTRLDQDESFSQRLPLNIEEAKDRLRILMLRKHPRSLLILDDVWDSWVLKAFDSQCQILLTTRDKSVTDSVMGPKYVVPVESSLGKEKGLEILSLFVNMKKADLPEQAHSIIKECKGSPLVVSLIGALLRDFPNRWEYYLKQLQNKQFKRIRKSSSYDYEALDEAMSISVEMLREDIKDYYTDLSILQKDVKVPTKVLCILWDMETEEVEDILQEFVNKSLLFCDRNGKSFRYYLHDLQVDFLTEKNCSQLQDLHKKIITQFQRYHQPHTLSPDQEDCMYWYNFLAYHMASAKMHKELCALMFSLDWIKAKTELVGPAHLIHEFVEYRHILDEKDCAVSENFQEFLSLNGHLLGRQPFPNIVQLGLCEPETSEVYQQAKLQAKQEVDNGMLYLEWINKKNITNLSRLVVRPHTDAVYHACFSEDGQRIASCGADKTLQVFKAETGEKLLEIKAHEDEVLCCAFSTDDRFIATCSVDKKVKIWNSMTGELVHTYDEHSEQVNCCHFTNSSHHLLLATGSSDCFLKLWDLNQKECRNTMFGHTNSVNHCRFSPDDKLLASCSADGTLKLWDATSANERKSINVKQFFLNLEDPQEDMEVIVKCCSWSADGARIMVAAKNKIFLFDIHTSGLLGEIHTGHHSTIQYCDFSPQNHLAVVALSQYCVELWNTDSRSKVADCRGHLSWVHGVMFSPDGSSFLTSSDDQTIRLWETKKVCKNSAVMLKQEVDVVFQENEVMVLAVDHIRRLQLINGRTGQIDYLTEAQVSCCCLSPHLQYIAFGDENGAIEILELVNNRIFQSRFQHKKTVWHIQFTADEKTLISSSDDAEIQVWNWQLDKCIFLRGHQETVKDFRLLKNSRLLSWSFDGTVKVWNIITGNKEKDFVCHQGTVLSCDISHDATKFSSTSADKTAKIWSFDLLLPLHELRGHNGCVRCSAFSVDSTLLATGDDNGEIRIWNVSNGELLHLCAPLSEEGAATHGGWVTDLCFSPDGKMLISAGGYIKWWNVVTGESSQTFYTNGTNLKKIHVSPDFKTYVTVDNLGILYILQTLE
The class given is functional.

Regarding `CCOC(=O)c1c(C)[nH]c2c1-c1ccccc1C(=O)C2=O`, the AC50 (usually the concentration at which the activity in the assay is half-maximal) in test [1] is 0.496 µM (active); in test [2], 1.34 µM (active); in test [3], 3.96 µM (active); in test [4] it was 1 µM (active). The concentration for a half-maximal effect (EC50) – broadly, the midpoint of the concentration-response curve – on Protein RecA was 1.82 µM (active).
Regarding `COc1ccc2c(c1)CCC(/C=N/c1ccc3c(c1)OCO3)=C2O`, in test [5], the half-maximal inhibitory concentration (IC50) (usually the concentration that gives 50% inhibition) is 17.4 µM (active).
For `CC(=O)NC(c1ccc2ccccc2c1)c1ccc2cccnc2c1O` (stereo unspecified), the concentration at half-maximal activity (AC50) in test [1] was 0.422 µM (active); in test [3] it was 0.867 µM (active); in test [4], 0.51 µM (active).
For the compound `O=C(c1ccccc1)c1coc2c1C(=O)c1ccccc1C2=O`, in test [5], the IC50 was 15 µM (active).
As to `CCc1ccc(Nc2n[n+](-c3ccccc3)c(-c3c(Cl)cccc3Cl)s2)cc1`, the AC50 in test [1] was 5.4 µM (active); in test [2] it was 3.71 µM (active); in test [3], 14.6 µM (active); in test [4], 19.4 µM (active). For the same compound, at Protein RecA, the EC50 was 9.38 µM (active).
As to `CCOC(=O)c1c(C)oc2c1c(/C=N/CCC(=O)O)c(O)c1ccccc12`, in test [5], the IC50 was 12.3 µM (active). The 50% effective concentration (EC50) on Protein RecA is 0.39 µM (active). Besides, the AC50 in test [2] was > 380 µM (inactive).
As to `CCOC(=O)C1=C(c2ccccc2)N=C(N)NC1c1ccc(OCc2ccc(Cl)cc2)c(OC)c1` (stereo unspecified), in test [5], the IC50 was 14.6 µM (active). Moreover, the 50% effective concentration (EC50) at Protein RecA was 14.3 µM (active). Also, the AC50 in test [2] was 8.68 µM (active).

The values are drawn from ChEMBL document CHEMBL1201862, “PubChem BioAssay data set” (2004).
